{"source": "patent US20260364072A1", "about": "“METHODS FOR PROMOTING EXPANSION OF HUMAN CD34+ CELLS IN VIVO AND FOR PROMOTING NEURAL REGENERATION” (THE REGENTS OF THE UNIVERSITY OF CALIFORNIA, priority 2023, published 2026)", "key": {"MCL1 transcripts": {"tested_on": "MCL1 transcripts", "assay": "MCL1-S/L ratio by splice isoform-specific qRT-PCR in primary CD34+ MF HPC and LSC", "assay_type": "cell-based, human", "settings": "0.1 μM, compared with vehicle, short-term culture, no stroma"}, "[1]": {"tested_on": "human CD45+ADAR1-GFP+ cells and CD45+CD3+ADAR1-GFP+ cells", "assay": "aNBM SAK378 PDX mice, flow cytometry", "assay_type": "in vivo, human cells in NSG-SGM3 mice", "settings": "10 mg/kg, IV, BIW×2", "experimental": "Aged normal bone marrow (aNBM) PDX mouse models SAK378 were established with 80-100K ADAR1-reporter transduced CD34+ cells by IV injection into NSG-SGM3 mice at the age of 5-6 weeks. When the models were ready, the mice were treated with either vehicle or rebecsinib (10 mg/kg, IV, BIW×2). The mice were sacrificed upon completion of the dosing plan, and single cells from PB, SP, and BM were collected and stained with mAbs for CD45, CD3, CD14, and CD19."}, "phospho-STAT3": {"tested_on": "phospho-STAT3", "assay": "phospho-STAT3 intracellular flow cytometry", "assay_type": "cell-based, human", "experimental": "Flow cytometry for stem and progenitor cell surface antibody staining was performed as previously described.^14 For phospho-flow, a subset of samples was fixed and permeabilized, then blocked and stained with APC-conjugated ADAR1p150 antibody (cat ab269444, 1:25) and pSTAT3 APC (cat 17-9033-42, 1:10) (Table S2). Fractions were analyzed with the BD LSR FORTESSA™ (Sanford Consortium for Regenerative Medicine Stem Cell Core) and FLOWJO™ software (TreeStar, Ashland, OR)."}, "human CD34+ cells": {"tested_on": "human CD34+ cells", "assay": "Aged normal bone marrow CD34+ engrafted NSG-SGM3 mice, flow cytometry of PB, SP, BM", "assay_type": "in vivo, human cells in NSG-SGM3 mice", "settings": "10 mg/kg, intravenously, twice a week for 2 weeks", "description": "Here, we established humanized mouse models using CD34^+ stem cells isolated from the peripheral blood of adult secondary AML (sAML) patients or bone marrow of normal-aged donors (63-79 years old).\nFIG. 1: Rebecsinib treatment promotes human CD34^+ cells and spares CD45^+ cells Aged normal bone marrow (BM) samples were provided by Scripps Clinic La Jolla, CA. Normal human CD34^+ cells were freshly isolated with Microbeads (Miltenyi Biotech) and subsequently transduced with the ADAR1-NanoLuc reporter for 48 hours. Adult NSG-SGM3 mice (4-6 weeks) were intravenously transplanted with 100K ADAR1-NanoLuc reporter transduced CD34^+ cells. The mice were screened using the IVIS 200 imaging system and staining of peripheral blood with human CD45 monoclonal antibody. Mice with human CD45^+ cells >1% were included in the treatment cohort receiving Rebecsinib at a dose of 10 mg/kg, intravenously, twice a week for 2 weeks, with a total of 5 doses. After treatment, mice were sacrificed, and single cells were obtained from peripheral blood (PB), bone marrow (BM), and spleen (SP) for further analysis. A. IVIS 200 images of NSG-SGM3 mice intravenously transplanted with ADAR1-NanoLuc reporter transduced normal human CD34^+ cells at 18 weeks after transplantation. B. Flow cytometry gating strategies showing positive and negative controls. C."}, "[2]": {"tested_on": "splicing reporter in KG-1a AML cells", "assay": "Lentiviral dual fluorescence (RFP/GFP) splicing reporter in KG-1a cells", "assay_type": "cell-based, human", "settings": "24 hr", "description": "(FIG. 29A) Quantification of cell viability (left panel) and splicing modulation (RFP/GFP ratios, right panel) by flow cytometry analyses of the human AML cell line (KG-1a) stably transduced with a lentiviral dual-fluorescence splicing reporter vector and treated with increasing concentrations of Rebecsinib.\nFor generation of stably transduced splicing reporter cell lines, a previously described splicing reporter construct^31 was cloned into a lentiviral vector backbone.^52 KG-1a cells were transduced with the dual-fluorescent lentiviral splicing reporter vector, treated with various concentrations of Rebecsinib (3-fold serial dilutions from 3 μM to 4 nM) for 24 hr, washed followed by DAPI staining, and analyzed by flow cytometry for cell viability and RFP/GFP fluorescence intensity. Results were from duplicate wells of each condition. Viability of cells treated with DMSO (0.5% final concentration) was set as 100%. Nonlinear regression curve fit analysis was carried out using Prism software (GraphPad) to determine ECso values for viability and mean fluorescence intensity (MFI) of RFP and GFP."}, "sAML LSC": {"tested_on": "sAML LSC", "assay": "Humanized sAML LSC mouse model", "assay_type": "in vivo, human cells in Rag2-/-γc-/- mice", "settings": "twice weekly dosing; splicing factor mutated and unmutated samples", "description": "In humanized mouse models, sAML cells (CD34^+) from two unique […] patient samples that were splicing factor mutated or unmutated were utilized, including sAML50261 and sAML2008-5.^14 For in vivo efficacy and therapeutic index studies, sAML CD34^+ cells, or normal human cord blood-derived or aged bone marrow-derived HSPCs (CD34^+), were transplanted (50,000-200,000 cells per mouse) intrahepatically into neonatal Rag2^−/−γc^−/− mice, or intravenously into adult NSG-SGM3 mice (Jackson Laboratories, Bar Harbor, ME). A subset of experiments was performed with normal aged bone marrow cells that were transduced with the lentiviral ADAR1 nanoluc-GFP reporter vector prior to transplant. […] For animals that received transplants of cells transduced with the lentiviral ADAR1 nanoluc-GFP reporter, mice were imaged 15 weeks after transplant on the IVIS 200, as previously described.^79 Following treatment with Rebecsinib (five intravenous doses total over a two-week period), hematopoietic tissues (peripheral blood, bone marrow, spleens) were collected and analyzed by flow cytometry as previously described.^14 For splice isoform-specific qRT-PCR or RNA-seq analyses on cells from in vivo studies, human CD34^+ LSC from bone marrows and spleens of engrafted mice were isolated by magnetic bead separation (Miltenyi Biotec)."}}, "data": [{"smiles": "CC[C@H](OC)[C@@H](C)[C@H]1O[C@@H]1[C@@H](O)[C@H](C)/C=C/C=C(\\C)[C@H]1OC(=O)C[C@H](O)CC[C@@](C)(O)[C@@H](OC(C)=O)/C=C/[C@@H]1C", "note": "[Rebecsinib]", "values": [{"measurement": "MCL1-S/L transcript ratio", "setting": "MCL1 transcripts", "value": "elevated expression of pro-apoptotic MCL1-short (S) compared with anti-apoptotic MCL1-long (L) transcripts"}, {"measurement": "CD45+CD3+GFP+ cells in PB, SP, and BM", "setting": "[1]", "value": "spares the cell populations"}, {"measurement": "CD45+GFP+ cells in PB, SP, and BM", "setting": "[1]", "value": "spares the cell populations"}, {"measurement": "phospho-STAT3 expression", "setting": "phospho-STAT3", "value": "reduced phospho-STAT3 expression"}, {"measurement": "human CD45+ cells and differentiated cells (CD14+, CD3+, CD19+)", "setting": "human CD34+ cells", "value": "preserves human CD45^+ cells and differentiated cells, including CD14^+ myeloid cells, and lymphoid cells such as CD3^+ T and CD19^+ B cells"}, {"measurement": "human CD34+ cells in BM", "setting": "human CD34+ cells; bone marrow, p=0.046, Student's t-test", "value": "significant CD34^+ increase"}, {"measurement": "human CD34+ cells in PB", "setting": "human CD34+ cells; peripheral blood", "value": "increased levels of human CD34^+ cells"}, {"measurement": "human CD34+ cells in SP", "setting": "human CD34+ cells; spleen", "value": "increased levels of human CD34^+ cells"}, {"measurement": "RFP to GFP reporter expression", "setting": "[2]", "value": "increased RFP to GFP reporter expression in a dose-dependent manner"}, {"measurement": "sAML LSC burden in bone marrow, peripheral blood, and spleen", "setting": "sAML LSC", "value": "significant reduction in sAML LSC burden"}]}]}
